We go through one compound from patent US9157904B2, “Wnt antagonists and methods of treatment and screening” (OncoMed Pharmaceuticals, Inc., priority 2010, dated 2015).

The subject of one assay is PN21 pancreatic tumors. Description: In vivo limiting dilution assay of treated PN21 tumors. Also noted: species or system NOD/SCID mice. To be noted: day 72, L-Calc. From the text:
As described above in Example 3, a limiting dilution assays was used to assess the effect of treatment with FZD8-Fc alone or in combination with gemcitabine on solid tumor cancer stem cells in the PN21 pancreatic tumor model.
Control and treated tumors from the PN21 xenograft study described above were harvested at the end of the study. The tumors were processed and dissociated into single cells. […] The human cells in the suspension were harvested, counted, and stained for cell surface markers and appropriate cell doses (30, 90, and 270 cells) in FACS buffer were mixed in a 1:1 mixture with Matrigel and injected subcutaneously in NOD/SCID mice (10 mice per cell dose per treatment group). […]
At the desired time point, the percentage of mice with detectable tumors was determined in all groups injected with treated tumor cells and compared to the percentage of mice with detectable tumors in control treated cells. For example, the number of mice injected with 125 control antibody-treated tumor cells that have detectable tumors is determined and compared to the number of mice injected with 125 FZD8-Fc treated tumor cells that have detectable tumors.
On day 72 after injection of the cells, tumor take rates in the various groups were determined and the cancer stem cell frequency was calculated using L-Calc™ software (StemCell Technologies Inc.; www.stemcell.com).

Another assay has as its system PN4 pancreatic tumors. Description: In vivo limiting dilution assay of treated PN4 tumors. The settings on record: day 75 after injection of 30, 90, 270 cells, control 7 out of 30. Also noted: species or system NOD/SCID mice. An excerpt: Limiting dilution assays (LDA) can be used to assess the effect of therapeutic agents on solid tumor cancer stem cells and on the tumorigenicity of a tumor comprising the cancer stem cells. Such assays can be used to determine the frequency of cancer stem cells in tumors from animals treated with the FZD8-Fc fusion protein or other agent and to compare that frequency to the frequency of cancer stem cells in tumors from control animals. Control and treated tumors from the PN4 xenograft study described above were harvested at the end of the study (day 85). The tumors were processed and dissociated into single cells. […] The human cells in the suspension were harvested, counted, and stained for cell surface markers and appropriate cell doses (30, 90, and 270 cells) in FACS buffer were mixed in a 1:1 mixture with Matrigel and injected subcutaneously in NOD/SCID mice (10 mice per cell dose per treatment group). […] At the desired time point, the percentage of mice with detectable tumors was determined in all groups injected with FZD8-Fc-treated tumor cells and compared to the percentage of mice with detectable tumors in the controls. For example, the number of mice injected with 125 control antibody-treated tumor cells that have detectable tumors is determined and compared to the number of mice injected with 125 FZD8-Fc treated tumor cells that have detectable tumors. […]

The subject of another assay is PN4 tumors. Put plainly: Flow cytometry for ESA and CD44 on treated PN4 tumors. To be noted: PN4 tumors harvested day 85, 5 tumors pooled; control antibody 12.7%. Format: in vivo, NOD/SCID mice. The protocol:
Control and treated tumors from the OMP-PN4 xenograft study described above were harvested at the end of the study (day 85). The tumors were processed and dissociated into single cells. Single cell suspensions derived from 5 tumors of each treatment group were pooled, and the pooled samples were then incubated on ice for 30 min with antibodies that bind mouse cells selectively (α-mouse CD45-biotin 1:200 dilution and rat α-mouse H2Kd-biotin 1:100 dilution, BioLegend, San Diego, Calif.), followed by addition of streptavidin-labeled magnetic beads (Invitrogen, Carlsbad, Calif.). Mouse cells were removed with the aid of a magnet. For analysis of human cell surface markers, the single tumor cell suspension was stained with anti-ESA (Biomeda, Hayward, Calif.) and anti-CD44 (BD Biosciences, San Jose, Calif.) antibodies which were directly conjugated to fluorochromes. Dead cells were excluded by using the viability dye DAPI. Flow cytometry was performed using a FACS Aria instrument (Becton Dickinson, Franklin Lakes, N.J.). Side scatter and forward scatter profiles were used to eliminate cell clumps.
A general note: In flow cytometry, cells or beads pass a laser one at a time.

Consider `Nc1ccn([C@@H]2O[C@H](CO)[C@@H](O)C2(F)F)c(=O)n1` [gemcitabine, reference compound], for which the “cancer stem cell frequency” value in the assay on PN21 pancreatic tumors was “slightly increased”. Also, in the assay with PN4 pancreatic tumors, the tumor take rate is given as 7 mice out of 30 mice. For the same compound, the “bulk tumor population expressing both ESA and CD44 at high levels (double positive population)” value in the assay on PN4 tumors is 13.9%.
